From paper PMC8428568, “Discovery of re-purposed drugs that slow SARS-CoV-2 replication in human cells” (PLoS Pathogens, 2021)
Where a name gives a salt, the structure may show the parent alone. Read-outs that look alike come from different tables or passages of the source.

How the values were obtained:
[1] = test system: SARS-CoV-2-ΔOrf7a-NLuc virus; experiment: microbe, parasite or virus in culture; format: cell-based; details: for activity at 10 µM: Severe acute respiratory syndrome coronavirus 2, Vero, 72 h, read-out: Mean relative luminescence (n=4)
[2] = test system: Vero cells
[3] = test system: SARS-CoV-2-ΔOrf7a-NLuc virus; experiment: microbe, parasite or virus in culture; format: cell-based
[4] = test system: HUH7 cells
[5] = test system: recombinant NLuc; format: biochemical
[6] = […], 1 = untreated, 0 = total inhibition
[7] = Vero screen, […], relative luminescence
[8] = Vero cells, 10 μM, 1 = DMSO-treated infected cells
[9] = HUH7 screen, […], relative luminescence
[10] = recombinant NLuc activity relative to DMSO
[11] = recombinant NLuc, first read column
[12] = recombinant NLuc, fourth read column
[13] = recombinant NLuc, third read column

Structure (SMILES)	% activity in Vero 100PFU screen [1]	activity at 10 µM [1, 6]	Mean relative luminescence (n=4) [1, 7]	PrestoBlue relative viability [2, 8]	PrestoBlue relative viability ([2]; Vero screen)	Mean relative luminescence (n=4) [3, 9]	PrestoBlue relative viability ([4]; HUH7 screen)	Relative Recombinant NLUC [5, 10]	Reads Counts per second (read 1) [5, 11]	Reads Counts per second (read 4) [5, 12]	Reads Counts per second (read 3) [5, 13]	other results
O=C(c1ccc(OCCN2CCCCC2)cc1)c1c(-c2ccc(O)cc2)sc2cc(O)ccc12 [Raloxifene HCl]	6%	2.63%	0.02628	0.579	0.579	0.03646	0.5413	0.8812	334037 Counts per second	335545 Counts per second	331016 Counts per second	
CCCCc1oc2ccccc2c1C(=O)c1cc(I)c(OCCN(CC)CC)c(I)c1 [Amiodarone HCl]		3.18%	0.03182	0.8378	0.8378	0.03404	0.9633	0.9671	364410 Counts per second	366409 Counts per second	365644 Counts per second	Reads Counts per second (read 2) ([5]; recombinant NLuc): 365102 Counts per second
O=C(/C=C\n1cnc(-c2cc(C(F)(F)F)cc(C(F)(F)F)c2)n1)NNc1cnccn1 [KPT-330]	3.73%	0.545%	0.005454	0.581	0.581	0.05859	0.7102	1.022	378225 Counts per second	381493 Counts per second	389989 Counts per second	
COc1cc2nccc(Oc3ccc(NC(=O)C4(C(=O)Nc5ccc(F)cc5)CC4)cc3)c2cc1OC [Cabozantinib malate (XL184), Cabozantinib malate]	12%	10.3%	0.1026	0.5119	0.5119	0.03412	0.8011	0.8679	333265 Counts per second	328687 Counts per second	329153 Counts per second	
CC[C@H](C)C(=O)O[C@H]1C[C@@H](C)C=C2C=C[C@H](C)[C@H](CC[C@@H]3C[C@@H](O)CC(=O)O3)[C@H]21 [Lovastatin]	9%	8.28%	0.0828	0.5479	0.5479	0.08758	1.075	0.9319	351803 Counts per second	349914 Counts per second	353101 Counts per second	
COc1nc2ccc(Br)cc2cc1[C@@H](c1ccccc1)[C@@](O)(CCN(C)C)c1cccc2ccccc12.O=C(O)/C=C/C(=O)O [Bedaquiline fumarate]	3.58%		0.01053	1.113	1.113	0.1084	0.5224	0.9227	351974 Counts per second	338630 Counts per second	351293 Counts per second	Mean relative luminescence (n=4) [1, 6]: 0.01053; Reads Counts per second (read 2) ([5]; recombinant NLuc): 352561 Counts per second
COC(=O)C1=C(C)NC(C)=C(C(=O)O[C@@H]2CCCN(Cc3ccccc3)C2)[C@@H]1c1cccc([N+](=O)[O-])c1.Cl (racemic) [Benidipine HCl]	1.81%		0.003673	0.8086	0.8086	0.003821	0.6609	0.1313	50508 Counts per second	49177 Counts per second	49185 Counts per second	Mean relative luminescence (n=4) [1, 6]: 0.003673; Reads Counts per second (read 2) ([5]; recombinant NLuc): 49563 Counts per second
Clc1ccc(C(Cn2ccnc2)OCc2ccsc2Cl)c(Cl)c1 (stereo not drawn) [Tioconazole]	10%											activity at 10 µM [1]: 7.16%; PrestoBlue relative viability ([2]; African green monkey): 1.172; Mean relative luminescence (n=4) [3]: 0.1247; PrestoBlue relative viability ([4]; human): 1.129; Reads Counts per second (read 1) [5]: 349867 Counts per second; Reads Counts per second (read 3) [5]: 345556 Counts per second; Reads Counts per second (read 4) [5]: 349383 Counts per second; Relative Recombinant NLUC [5]: 0.9221
COC(=O)C1=C(C)NC(C)=C(C(=O)OC(C)C)C1c1cccc2nonc12 (stereo not drawn) [Isradipine (Dynacirc), Isradipine]	6%	3.92%	0.03922	0.6155	0.6155	0.001355	0.6762	0.04959	19176 Counts per second	18431 Counts per second	18561 Counts per second	
CC(C)n1c(/C=C/C(O)CC(O)CC(=O)O)c(-c2ccc(F)cc2)c2ccccc21 (stereo not drawn) [Fluvastatin Sodium]	6%	5.01%	0.05005	0.5553	0.5553	0.05448	1.3017	0.8994	344916 Counts per second	335899 Counts per second	339204 Counts per second	
Cc1cc(C2CCCCC2)n(O)c(=O)c1.NCCO [Ciclopirox ethanolamine]	7%		0.05436	0.5173	0.5173	0.04601	0.5023	0.961	358391 Counts per second	361119 Counts per second	365653 Counts per second	Mean relative luminescence (n=4) [1, 6]: 0.05436
COCCOC(=O)C1=C(C)NC(C)=C(C(=O)OC/C=C/c2ccccc2)C1c1cccc([N+](=O)[O-])c1 (stereo not drawn) [Cilnidipine]	0.696%	0.039%	0.0003902	0.8017	0.8017	0.00182	0.797	0.07521	28828 Counts per second	27971 Counts per second	28106 Counts per second	
Cl.Cl.Cl.O[C@@H](COc1cccc2ncccc12)CN1CCN([C@@H]2c3ccccc3[C@@H]3[C@H](c4ccccc42)C3(F)F)CC1 [LY335979 (Zosuquidar 3HCL), Zosuquidar 3HCL]	3%		0.008621	0.5866	0.5866	0.08231	0.6203	0.9362	352212 Counts per second	351420 Counts per second	356783 Counts per second	Mean relative luminescence (n=4) [1, 6]: 0.008621
COc1cccc2c1C(=O)c1c(O)c3c(c(O)c1C2=O)C[C@@](O)(C(C)=O)C[C@@H]3O[C@H]1C[C@H](N)[C@H](O)[C@H](C)O1 [Daunorubicin HCl]	5%	2.1%	0.02101	0.6965	0.6965	0.006058	0.5186	0.8615	319222 Counts per second	328432 Counts per second	327409 Counts per second	
CCOC(=O)C1=C(C)NC(C)=C(C(=O)OC)C1c1cccc([N+](=O)[O-])c1 (stereo not drawn) [Nitrendipine]	8.56%	7.21%	0.07211	0.8649	0.8649	0.0007292	0.6545	0.06915	26271 Counts per second	26141 Counts per second	26096 Counts per second	
